Key:
[1] = tested on: chorioallantoic membrane of a chicken egg; assay: Eye irritation assay (HET-CAM test); conditions: for OII (Ocular Irritation Index): calculated from H, V and C times; for Classification: interpretation of OII by Table 2; for Clotting time / Haemorrhage time / Vasoconstriction time: time when change appears, observed for 5 minutes
Description: With the aim of proposing potential uses of the gel in ocular applications, the possible eye irritation of this material was studied by means of a HET-CAM test. The gel formed from HSPC and OA with a molar ratio of 3:1 and a total lipid concentration of 5% was directly applied to the chorioallantoic membrane of a chicken egg due to its similarity to the human cornea. The appearance of vascular lesion or clotting in response to a compound is the basis for using this technique as an indicator of the probability that a substance may harm the mucous membranes, especially the cornea of the human eye, in vitro. In order to execute the method, the egg shell is carefully removed, moistening the membrane with a NaCl solution at 37° C. Next, the NaCl is removed and the white membrane is removed without harming any blood vessel. Next, the gel sample is applied and the appearance of haemorrhage (H), vasoconstriction (V) and/or clotting (C) can be observed for 5 minutes. Lastly, the Ocular Irritation Index (OII) is estimated using the following formula: [formula] H, V and C are the time in seconds when this change appears. If there is no alteration, they are equal to 300. The result obtained from the formula can be interpreted on the basis of Table 2: [table]

[2] = in vitro cutaneous permeation assay on pig skin, fluorescence microscopy; format: in vitro ADME
Procedure: In order to evaluate the potential of these gels as cutaneous application systems, an in vitro permeation assay was conducted on pig skin and observations were made using fluorescence microscopy. Two gels were formed which were applied to the skin surface. One of them was formed by incorporating a red fluorescent probe (Rhodamine B) in order to observe in which areas of the skin the gel-forming phospholipids are retained. In the other gel, a fluorescent green probe (fluorescein) was added in the aqueous phase with the aim of simulating a possible water-soluble active ingredient incorporated to the gel. The gel was gently applied to the skin and left to permeate overnight at 37° C. in a humid environment. Next, the skin was cut into sections and the cells marked in blue in order to distinguish the different skin layers.

| Compound | OII (Ocular Irritation Index) [1] | Classification [1] | Clotting time [1] [s] | Haemorrhage time [1] [s] | Vasoconstriction time [1] [s] | skin permeation of fluorescein from aqueous solution ([2]; control, aqueous solution with fluorescein without incorporating the gel) | skin permeation of fluorescein dissolved in the aqueous phase of the gel ([2]; fluorescein in gel, overnight at 37° C., FIG. 6) |
| --- | --- | --- | --- | --- | --- | --- | --- |
| CCCCCCCCCCCCOS(=O)(=O)[O-].[Na+] [1% SDS, SDS] | 3.23 | Mildly | 0 | 110 | 0 | – | – |
| [Na+].[OH-] [NaOH] | 17.79 | Irritating (9-21) | 20 | 28 | 13 | – | – |
| O=C1OC2(c3ccc(O)cc3Oc3cc(O)ccc32)c2ccccc21 [fluorescein] | – | – | – | – | – | only slightly incorporated in the stratum corneum | capable of permeating the skin, covering the entire stratum corneum and epidermis |

From patent US12208163B2, “Nanostructured lipid gel, method for preparation and use” (CONSEJO SUPERIOR DE INVESTIGACIONES CIENTÍFICAS, priority 2018, dated 2025)
